Our source for the melting point and IC50 values is patent publication US20240140941A1, “DERIVATIVE OF 2,5-DIKETOPIPERAZINE COMPOUND, AND PREPARATION METHOD THEREFOR, PHARMACEUTICAL COMPOSITION THEREOF AND USE THEREOF” (DALIAN WZ PROBIOTICS AD HEALTH CO., LTD, priority 2020, published 2024).

Where a name gives a salt, the structure may show the parent alone. Read-outs that look alike come from different tables or passages of the source.

The subject of one data set is NCI-H460. Nature of the data set: Inhibition test on cell proliferation (MTT), NCI-H460. In kind it is cell-based, human. The procedure:
(§1) Tumor cells (NCI-H460, BxPC-3, HT-29, HCC-LM3) in the logarithmic growth phase were digested, centrifuged, and the supernatants were removed. Cells were resuspended by adding fresh culture medium, and counted using a cell counting plate. 100 μL of culture medium (containing cells) was added to a 96-well plate according to the standard of 2000 to 6000 cells per well and incubated in an incubator (37° C., 5% CO2) for 24 hours. After the cells were completely adhered to the wall, the test sample and Plinabulin were diluted to different concentrations using fresh culture medium, and 4 wells were set for each concentration. After 72 hours of drug treatment, the culture medium was removed, and 20 μL of MTT at a concentration of 5 mg/mL was added to each well. After 3-4 hours in the incubator, the MTT was discarded, and 100 μL of DMSO was added to each well, and placed in a 96-well plate shaker to completely dissolve the purple formazan. Subsequently, the absorbance (OD value) was detected at a wavelength of 490 nm using a microplate reader. The experiment also required setting up zero-setting wells (blank culture medium, MTT, DMSO). Cell inhibition rate=1−(OD value of drug-dosed group−OD value of zero-setting group)/(OD value of blank group−OD value of zero-setting group)×100%.

For another data set, the system named is BxPC-3. Description: Inhibition test on cell proliferation (MTT), BxPC-3. In kind it is cell-based, human. As to conditions: read-out: IC50 (nM) BxPC-3. The procedure:
as §1

The next data set concerns HCC-LM3. Nature of the data set: Inhibition test on cell proliferation (MTT), HCC-LM3. The format is cell-based, human. As to conditions: read-out: IC50 (nM) HCC-LM3. The procedure:
as §1

For the next data set, the system named is HT-29. Nature of the data set: Inhibition test on cell proliferation (MTT), HT-29. The format is cell-based, human. The note with it: 72 hours of drug treatment. On the procedure: as §1
The mark [1] stands for this setting: Homo sapiens, NCI-H460, 72 h, 72 hours of drug treatment, MTT, read-out: IC50 (nM) NCI-H460.
The mark [2] stands for this setting: Homo sapiens, BXPC-3, 72 h, 72 hours of drug treatment, MTT.
[3] abbreviates: 72 hours of drug treatment, MTT, mesylate.
Setting [4] is: Homo sapiens, HCCLM3, 72 h, 72 hours of drug treatment, MTT.
[5] abbreviates: 72 hours of drug treatment, MTT, mesylate, read-out: IC50 (nM) NCI-H460.
[6] abbreviates: 72 hours of drug treatment, MTT, hydrochloride, read-out: IC50 (nM) NCI-H460.
Where [7] appears, read: 72 hours of drug treatment, MTT, hydrochloride.

As a reminder, the melting point is the temperature of the solid-liquid transition. As to `CC(C)c1c(/C=c2\[nH]c(=O)/c(=C/c3cccc(Oc4ccc(F)cc4)c3)[nH]c2=O)ncn1CCCN1CCOCC1` (as salt: hydrochloride) [PLN-2-2-1], the melting point is 173 to 175 °C.
`CC(C)c1c(/C=c2\[nH]c(=O)/c(=C/c3ccccc3)[nH]c2=O)ncn1CCCN1CCOCC1` (as salt: hydrochloride) [PLN-2-5-1, (3Z,6Z)-3-Benzylidene-6-((5-isopropyl-1-(3-morpholinyl)propylimidazol-4-yl)methylene)piperazine-2,5-dione, hydrochloride] returned a melting point of 220 to 222 °C.
Turning to `CC(C)c1c(/C=c2\[nH]c(=O)/c(=C/c3cc(F)ccc3F)[nH]c2=O)ncn1CCCN1CCOCC1` (as salt: hydrochloride) [PLN-2-7-1, (3Z,6Z)-3-(2,5-Difluorophenyl)methylene-6-((5-isopropyl-1-(3-morpholinyl)propylimidazol-4-yl)methylene)piperazine-2,5-dione, hydrochloride], the melting point is 174 to 176 °C.
With `CC(C)c1c(/C=c2\[nH]c(=O)/c(=C/c3cccc(F)c3)[nH]c2=O)ncn1CCCN1CCO[C@H](C)C1` (as salt: hydrochloride) [PLN-2-56-1, (3Z,6Z)-3-(3-Fluorophenyl)methylene-6-(5-isopropyl-1-(3-(R)-(2-methylmorpholinyl)propylimidazol-4-yl)methylene)piperazine-2,5-dione, hydrochloride], the melting point is 232.8 to 234.8 °C.
The same measure, in the same setting: next, `CC(C)c1c(/C=c2\[nH]c(=O)/c(=C/c3cccc(F)c3)[nH]c2=O)ncn1CCCN1CCO[C@@H](C)C1` (as salt: hydrochloride) [PLN-2-57-1, (3Z,6Z)-3-(3-Fluorophenyl)methylene-6-(5-isopropyl-1-(3-S)—(−2-methylmorpholinyl)propylimidazol-4-yl)methylene)piperazine-2,5-dione, hydrochloride]: 232.2 to 234.2 °C.
For orientation: IC50 means the concentration that gives 50% inhibition. As to `CC(C)c1c(/C=c2\[nH]c(=O)/c(=C/c3cccc(C(=O)c4ccc(F)cc4)c3)[nH]c2=O)ncn1CCCN1CCOCC1` [PLN-2-1-2, (3Z,6Z)-3-(3-(p-Fluorobenzoyl)phenyl)methylene-6-((5-isopropyl-1-(3-morpholinyl)propylimidazol-4-yl)methylene)piperazine-2,5-dione, mesylate], the half-maximal inhibitory concentration (IC50) with NCI-H460 (setting [1]) was 1.95 ± 0.08 nM; with BxPC-3 (setting [2]), 1.33 ± 0.19 nM; in the data set on HCC-LM3 (setting [3]) it was 1.85 ± 0.27 nM; in the data set on HT-29 (Homo sapiens, HT-29, 72 h), 1.42 ± 0.46 nM.
Turning to `O=c1[nH]/c(=C\c2ncn(CCCN3CCOCC3)c2C2CC2)c(=O)[nH]/c1=C\c1ccccc1` [PLN-2-6, (3Z,6Z)-3-benzylidene-6-((5-cyclopropyl-1-(−3-morpholinyl)propylimidazol-4-yl)methylene)piperazine-2,5-dione], the 50% inhibitory concentration (IC50) in the data set with NCI-H460 (setting [1]) amounted to 33.5 ± 0.46 nM; in the data set with BxPC-3 (setting [2]), 27.7 ± 0.94 nM; in the data set on HCC-LM3 (setting [4]), 16.6 ± 0.66 nM; in the data set with HT-29 (Homo sapiens, HT-29, 72 h), 25.3 ± 3.54 nM.
Consider `CC(C)c1c(/C=c2\[nH]c(=O)/c(=C/c3cccc(F)c3)[nH]c2=O)ncn1CCCN1CCOCC1` [PLN-2-9-2, mesylate], for which the IC50 with NCI-H460 (setting [5]) turned out to be 8.49 ± 0.72 nM; with BxPC-3 (setting [3]), 5.14 ± 0.52 nM; in the data set on HCC-LM3 (setting [3]) it was 6.08 ± 0.51 nM; in the data set with HT-29 (mesylate), 5.84 ± 1.66 nM.
With `O=c1[nH]/c(=C\c2ncn(CCCN3CCOCC3)c2C2CC2)c(=O)[nH]/c1=C\c1cccc(F)c1` [PLN-2-10-2, (3Z,6Z)-3-(3-Fluorophenyl)methylene-6-((5-cyclopropyl-1-(3-morpholinyl)propylimidazol-4-yl)methylene)piperazine-2,5-dione, mesylate], the IC50 amounted to 11.2 ± 2.04 nM with NCI-H460 (setting [5]), 12.6 ± 0.96 nM in the data set with BxPC-3 (setting [3]), 13.3 ± 4.02 nM with HCC-LM3 (setting [3]) and 13.2 ± 2.15 nM in the data set with HT-29 (mesylate).
With `CC(C)c1c(/C=c2\[nH]c(=O)/c(=C/c3cccc(C(=O)c4ccc(F)cc4)c3)[nH]c2=O)ncn1CCCN1CCNCC1` [PLN-2-16, (3Z,6Z)-3-(3-(p-fluorobenzoyl)phenyl)methylene-6-((5-isopropyl-1-(3-piperazinyl)propylimidazol-4-yl)methylene)piperazine-2,5-dione], the IC50 came to 25.6 ± 9.64 nM with NCI-H460 (setting [1]); 5.92 ± 3.74 nM in the data set with BxPC-3 (setting [2]); 11.1 ± 1.87 nM with HT-29 (Homo sapiens, HT-29, 72 h).
As for `CC(C)c1c(/C=c2\[nH]c(=O)/c(=C/c3cccc(Oc4ccc(F)cc4)c3)[nH]c2=O)ncn1CCCN1CCNCC1` [PLN-2-18], the melting point is 176 to 178 °C. Moreover, in the data set with NCI-H460 (setting [1]), the IC50 was 99.72 ± 0.82 nM.
Consider `CC(C)c1c(/C=c2\[nH]c(=O)/c(=C/c3cccc(C(=O)c4ccc(F)cc4)c3)[nH]c2=O)ncn1CCCN1CCN(C)CC1` [PLN-2-21, (3Z,6Z)-3-(3-(p-fluorobenzoyl)phenyl)methylene-6-((5-isopropyl-1-(3-N-methylpiperazinyl)propylimidazol-4-yl)methylene)piperazine-2,5-dione], for which the IC50 in the data set with NCI-H460 (setting [1]) was 23.9 ± 1.02 nM; with BxPC-3 (setting [2]), 15.3 ± 1.83 nM; in the data set on HT-29 (Homo sapiens, HT-29, 72 h), 13.8 ± 3.08 nM.
The corresponding values for `CC(C)c1c(/C=c2\[nH]c(=O)/c(=C/c3cccc(C(=O)c4ccc(F)cc4)c3)[nH]c2=O)ncn1CCCN1CCN(C(=O)C2CCC2)CC1` [PLN-2-36, (3Z,6Z)-3-(3-(p-fluorobenzoyl)phenyl)methylene-6-((5-isopropyl-1-(3-N-cyclobutanoylpiperazinyl)propylimidazol-4-yl)methylene)piperazine-2,5-dione] are 4.31 ± 0.59 nM, 2.25 ± 1.22 nM and 2.97 ± 0.51 nM.
As to `CC(C)c1c(/C=c2\[nH]c(=O)/c(=C/c3cccc(F)c3)[nH]c2=O)ncn1CCCN1CCO[C@H](C)C1` [PLN-2-56-1, (3Z,6Z)-3-(3-Fluorophenyl)methylene-6-(5-isopropyl-1-(3-(R)-(2-methylmorpholinyl)propylimidazol-4-yl)methylene)piperazine-2,5-dione, hydrochloride], the IC50 with NCI-H460 (setting [6]) is 7.69 ± 0.28 nM; in the data set with BxPC-3 (setting [7]), 4.99 ± 0.19 nM; with HCC-LM3 (setting [7]), 4.72 ± 0.73 nM; with HT-29 (hydrochloride), 4.43 ± 0.13 nM.
On the same counts, the results for `CC(C)c1c(/C=c2\[nH]c(=O)/c(=C/c3cccc(F)c3)[nH]c2=O)ncn1CCCN1CCO[C@@H](C)C1` [PLN-2-57-1, (3Z,6Z)-3-(3-Fluorophenyl)methylene-6-(5-isopropyl-1-(3-S)—(−2-methylmorpholinyl)propylimidazol-4-yl)methylene)piperazine-2,5-dione, hydrochloride] are 17.5 ± 0.71 nM, 14.1 ± 1.23 nM, 12.9 ± 1.61 nM and 10.6 ± 3.68 nM.
`CCOCC1CN(CCCn2cnc(/C=c3\[nH]c(=O)/c(=C/c4cccc(F)c4)[nH]c3=O)c2C(C)C)CCO1` (centres unmarked) [PLN-2-58, (3Z,6Z)-3-(3-Fluorophenyl)methylene-6-(5-isopropyl-1-(3-(2-(ethoxymethyl)morpholinyl)propylimidazol-4-yl)methylene)piperazine-2,5-dione] registered a melting point of 202 to 204 °C. Also, the IC50 in the data set with NCI-H460 (setting [1]) was determined as 11.8 ± 1.82 nM. In the data set on BxPC-3 (setting [2]), the IC50 was 8.1 ± 1.44 nM. In addition, the IC50 in the data set on HCC-LM3 (setting [4]) stood at 16.7 ± 0.98 nM.
On the same counts, the results for `CCCOCC1CN(CCCn2cnc(/C=c3\[nH]c(=O)/c(=C/c4cccc(F)c4)[nH]c3=O)c2C(C)C)CCO1` (centres unmarked) [PLN-2-59, (3Z,6Z)-3-(3-fluorophenyl)methylene-6-(5-isopropyl-1-(3-(2-(propoxymethyl)morpholinyl)propylimidazol-4-yl)methylene)piperazine-2,5-dione] are 178 to 180 °C, 27.4 ± 0.52 nM, 15.5 ± 0.74 nM and 23.3 ± 2.49 nM.
Compound `CC(C)c1c(/C=c2\[nH]c(=O)/c(=C/c3cccc(F)c3)[nH]c2=O)ncn1CCCN1CCOC(COCc2ccccc2)C1` (centres unmarked) [PLN-2-60, (3Z,6Z)-3-(3-Fluorophenyl)methylene-6-(5-isopropyl-1-(3-(2-(benzyloxymethyl)morpholinyl)propylimidazol-4-yl)methylene)piperazine-2,5-dione] had a melting point of 157 to 159 °C. In addition, the IC50 with NCI-H460 (Homo sapiens, NCI-H460, 72 h, read-out: IC50 (nM) NCI-H460, 72 hours of drug treatment, MTT) was found to be 59.67 ± 0.3 nM. The IC50 in the data set on BxPC-3 (Homo sapiens, BXPC-3, 72 h) amounted to 27.2 ± 1.42 nM. In addition, in the data set with HCC-LM3 (Homo sapiens, HCCLM3, 72 h), the IC50 was 49.2 ± 1.3 nM.
Take `CC(C)c1c(/C=c2\[nH]c(=O)/c(=C/c3cc(F)cc(F)c3)[nH]c2=O)ncn1CCCN1CCOCC1` [PLN-2-62-2, (3Z,6Z)-3-(3,5-Difluorophenyl)methylene-6-((5-isopropyl-1-(3-morpholinyl)propylimidazol-4-yl)methylene)piperazine-2,5-dione, mesylate]: the IC50 was 4.6 ± 1.33 nM with NCI-H460 (setting [5]), 3.66 ± 1.15 nM with BxPC-3 (setting [3]), 3.99 ± 0.08 nM in the data set with HCC-LM3 (setting [3]) and 3.55 ± 0.04 nM in the data set with HT-29 (mesylate).
